Measured values reported in patent US11752088B2, “Highly concentrated seawater mineral extract and uses thereof” (Oriel Seasalt Company Limited, priority 2015, dated 2023).

Test: Flow Mediated Dilation (FMD) test
Settings: in vivo

`O=[N+]([O-])OCC(CO[N+](=O)[O-])O[N+](=O)[O-]` [Nitroglycerin] gave an FMD reading of 10 % FMD and a blood vessel diameter of 5.3 mm.
